Test results from ChEMBL document CHEMBL1201862, “PubChem BioAssay data set” (2004).
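Following 48 hours of exposure in 96-well plates, responses at five concentrations were used to interpolate endpoints linearly. Abbreviation: GI50, concentration required for 50% inhibition of growth.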 Calls of active or inactive are those of the source. Cut-off read from the data, not from the text of the source: active = GI50 up to about 1.1 µM and inactive = higher.

Assays:
Assay in all cases: growth of human tumour cells (NCI), 48 h
[1] = system: UACC-62
[2] = system: SK-MEL-5
[3] = system: A549
[4] = system: RXF 393
[5] = system: HOP-92
[6] = system: COLO 205
[7] = system: XF498
[8] = system: SK-OV-3
[9] = system: SNB-75
[10] = system: SN12C
[11] = system: SF-295
[12] = system: SF-268
[13] = system: HOP-18
[14] = system: CAKI-1
[15] = system: DMS-273
[16] = system: EKVX
[17] = system: DLD-1
[18] = system: HCT-116
[19] = system: KM-20L2
[20] = system: TK-10

Compound	GI50 [1]	GI50 [2]	GI50 [3]	GI50 [4]	GI50 [5]	GI50 [6]	GI50 [7]	GI50 [8]	GI50 [9]	GI50 [10]	GI50 [11]	GI50 [12]	GI50 [13]	GI50 [14]	GI50 [15]	GI50 [16]	GI50 [17]	GI50 [18]	GI50 [19]	GI50 [20]
CSc1sc(=S)sc1SC	> 100 µM (inactive)	> 100 µM (inactive)	> 100 µM (inactive)	> 100 µM (inactive)	> 100 µM (inactive)	> 100 µM (inactive)	> 100 µM (inactive)	> 100 µM (inactive)	46.9 µM (inactive)	> 100 µM (inactive)	> 100 µM (inactive)	> 100 µM (inactive)	> 100 µM (inactive)	1 µM (active)	77.8 µM (inactive)	> 100 µM (inactive)	> 100 µM (inactive)	> 100 µM (inactive)	> 100 µM (inactive)	
C=CC(OCC)(OCC)OCC	> 100 µM (inactive)	> 100 µM (inactive)	> 100 µM (inactive)	> 100 µM (inactive)	> 100 µM (inactive)	> 100 µM (inactive)	> 100 µM (inactive)	> 100 µM (inactive)	> 100 µM (inactive)	> 100 µM (inactive)	> 100 µM (inactive)	> 100 µM (inactive)	> 100 µM (inactive)	> 100 µM (inactive)	18.2 µM (inactive)	> 100 µM (inactive)	35.2 µM (inactive)	20.6 µM (inactive)	> 100 µM (inactive)	> 100 µM (inactive)
CC(=O)N/C(=C\c1ccc(/C=C(\NC(C)=O)C2=NC3C(=O)c4ccccc4C(=O)C3N2)cc1)C1=NC2C(=O)c3ccccc3C(=O)C2N1 (stereo unspecified)	25.8 µM (inactive)	3.4 µM (inactive)	2.34 µM (inactive)	13.2 µM (inactive)	30.8 µM (inactive)	93.1 µM (inactive)	> 100 µM (inactive)	6.53 µM (inactive)	6.98 µM (inactive)	22.6 µM (inactive)	68.2 µM (inactive)	5.7 µM (inactive)	71.3 µM (inactive)	3.27 µM (inactive)	19.6 µM (inactive)	15.6 µM (inactive)	7.71 µM (inactive)	14.4 µM (inactive)	39.7 µM (inactive)	12.1 µM (inactive)
C=C1C(=O)OC2CC(C)C3C4OC4C(O)C3(C)C(O)C12 (stereo unspecified)	12.6 µM (inactive)	38.5 µM (inactive)	53.5 µM (inactive)	22.1 µM (inactive)	23.6 µM (inactive)	16.3 µM (inactive)	22.2 µM (inactive)	44.9 µM (inactive)	41.7 µM (inactive)	23 µM (inactive)	41 µM (inactive)	23.8 µM (inactive)	24.4 µM (inactive)	22.8 µM (inactive)	18.4 µM (inactive)	20 µM (inactive)	27.3 µM (inactive)	15.6 µM (inactive)	14.1 µM (inactive)	
CCC1OC(=O)C(C)C(OC2CC(C)(O)C(O)C(C)O2)C(C)C(O)C(C)(O)CC(C)C(=O)C(C)C(O)C1C (stereo unspecified)	> 300 µM (inactive)	> 300 µM (inactive)	> 300 µM (inactive)	> 300 µM (inactive)	30 µM (inactive)	> 300 µM (inactive)	> 300 µM (inactive)	> 300 µM (inactive)	> 300 µM (inactive)	> 300 µM (inactive)	> 300 µM (inactive)	> 300 µM (inactive)	> 300 µM (inactive)	> 300 µM (inactive)	> 300 µM (inactive)	> 300 µM (inactive)	> 300 µM (inactive)	> 300 µM (inactive)	> 300 µM (inactive)	
O=C(/C=C/c1ccc(Cl)c(Cl)c1)C1CCC(Cl)CC1 (stereo unspecified)	17 µM (inactive)	18.3 µM (inactive)	20 µM (inactive)	17.9 µM (inactive)	36.7 µM (inactive)	21.8 µM (inactive)	16 µM (inactive)	18.1 µM (inactive)	19.8 µM (inactive)	17.7 µM (inactive)	21 µM (inactive)	19.5 µM (inactive)	27.5 µM (inactive)	21.3 µM (inactive)	16.8 µM (inactive)	17.4 µM (inactive)	15.6 µM (inactive)	11.8 µM (inactive)	20.7 µM (inactive)	32.7 µM (inactive)
CCC/C=C/C=C\C(=O)O[C@@H]1[C@@H](C)[C@]2(O)[C@@H]3C=C(C)C(=O)[C@H]3CC(COC(C)=O)=C[C@H]2[C@@H]2C(C)(C)[C@]12OC(C)=O	35.2 µM (inactive)	16.4 µM (inactive)	4.59 µM (inactive)	47.5 µM (inactive)	43.8 µM (inactive)	1.74 µM (inactive)	7.29 µM (inactive)	81.7 µM (inactive)	57.7 µM (inactive)	40.3 µM (inactive)	6.64 µM (inactive)	39.7 µM (inactive)	28 µM (inactive)	26.1 µM (inactive)	22.6 µM (inactive)	49.9 µM (inactive)	16.7 µM (inactive)	20.4 µM (inactive)	44.4 µM (inactive)	
